Literature values, collected in patent publication US20180162913A1, “METHODS FOR PO[…] IMMUNE RESPONSE USING DEPOT-FORMING AND NON-DEPOT-FORMING VACCINES” (IMMUNOVACCINE TECHNOLOGIES INC., priority 2015, published 2018).

O=P1(N(CCCl)CCCl)NCCCO1 (stereo not drawn) [Cyclophosphamide (CPA), N,N-bis(2-chloroethyl)-1,3,2-oxazaphosphinan-2-amine 2-oxide]
bioavailability, intravenous infusion versus parenteral and oral administration (in vivo): little difference in bioavailability | Total systemic clearance of CPA and its metabolites (patients): 5 to 9 h | peak plasma levels of the parent, variation between patients (patients): 3 to 11 h
